In brackets after ≈: the same amount, converted by molar mass. Where two headings read alike, the source gives them in different places.
Key:
human (hACC2) ACC2 = human (hACC2) ACC2 (Homo sapiens, UniProt O00763); assay: In vitro Acetyl-CoA Carboxylase (ACC) inhibition assay (ADP-Glo), hACC2; assay type: biochemical
Description: The detailed procedure is as follows. […] 10 μL ADP glo reagent was added. […] 20 μL kinase detection reagent was added.
“NA” stands for “not assayed.”

[1] = test system: C. parapsilosis ATCC 22019; assay: Anti-Fungal (Candida) Activity Assay, broth microtiter MIC; assay type: cell-based; conditions: Lodderomyces parapsilosis, ATCC22019; 3 replicates, MIC recorded at 48 h; read-out: MIC C. parapsilosis ATCC 22019
How it was run: (§1)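 MIC by visual comparison of challenged wells with growth control, scored at 48 h. Setup: CLSI M27-A3 broth microtiter plates, RPMI 1640+MOPS medium, direct colony suspension from overnight Sabouraud agar cultures (35 °C, 24 h).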

C. albicans ATCC 90028 = assay: as above; assay type: cell-based; conditions: ATCC90028, 3 replicates, MIC recorded at 48 h, read-out: MIC C. albicans ATCC 90028
How it was run: as §1

C. krusei ATCC 6258 = assay: as above; assay type: cell-based; conditions: Pichia kudriavzevii, ATCC6258; 3 replicates, MIC recorded at 48 h; read-out: MIC C. krusei ATCC 6258
How it was run: as §1

fungal (fACC2) ACC2 = fungal (fACC2) ACC2 (UniProt Q00955); conditions: read-out: fACC2 IC50; fungal ACC2, ADP-Glo
[2] = test system: Collectotrichum graminicola (Cg); assay: Growth inhibition assay of fungal pathogens; assay type: cell-based; conditions: 48 h, Table 4b, read-out: Concentration at 90% Inhibition Cg
How it was run: (§2)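 Percent growth inhibition was derived from 48 h OD600 and visual scores relative to 2% DMSO, with blank background subtraction. Fungi were grown from spores in 17% V8 liquid medium, R. solani from 1.5 mm plugs in ¼ PDB, with compound at final 50/10/2 or 2/0.4/0.08 ppm.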

Diplodia maydis (Dm) = assay: Growth inhibition assay of fungal pathogens; assay type: cell-based; conditions: Stenocarpella maydis, 48 h, Table 4b, read-out: Concentration at 90% Inhibition Dm
How it was run: (§3)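 Compounds in DMSO tested at final 50, 10, 2 ppm or 2, 0.4, 0.08 ppm. Spores in 17% V8 medium, or 1.5 mm mycelial plugs in ¼ PDB for R. solani, incubated with compound. OD600 and visual ratings at 48 h versus 2% DMSO control gave percent growth inhibition.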

[3] = test system: Fusarium moniliforme (Fm); assay: Growth inhibition assay of fungal pathogens; assay type: cell-based; conditions: Fusarium verticillioides, 48 h, read-out: Concentration at 90% Inhibition Fm
How it was run: as §3

Botrtyis cinerea (Bc) = assay: Growth inhibition assay of fungal pathogens; assay type: cell-based; conditions: 48 h, Table 4b, read-out: Concentration at 90% Inhibition Bc
How it was run: as §3

[4] = test system: Phytophthora capsici (Pc); assay: Growth inhibition assay of fungal pathogens; assay type: cell-based; conditions: Phytophthora capsici, Table 4b, read-out: Concentration at 90% Inhibition Pc
How it was run: as §2

[5] = test system: Fusarium virguliforme (Fv); assay: Growth inhibition assay of fungal pathogens; assay type: cell-based; conditions: 48 h
How it was run: as §2

Septoria tritici (St) = assay: Growth inhibition assay of fungal pathogens; assay type: cell-based; conditions: Zymoseptoria tritici, Table 4b, read-out: Concentration at 90% Inhibition St
How it was run: as §2

Rhizoctonia solani (Rs) = assay: Growth inhibition assay of fungal pathogens; assay type: cell-based; conditions: 48 h, Table 4b, read-out: Concentration at 90% Inhibition Rs
How it was run: as §3

[6] = Table 4b, 48 hours, read-out: Concentration at 90% Inhibition Fv

Sequence of fungal (fACC2) ACC2 (Q00955 whole entry): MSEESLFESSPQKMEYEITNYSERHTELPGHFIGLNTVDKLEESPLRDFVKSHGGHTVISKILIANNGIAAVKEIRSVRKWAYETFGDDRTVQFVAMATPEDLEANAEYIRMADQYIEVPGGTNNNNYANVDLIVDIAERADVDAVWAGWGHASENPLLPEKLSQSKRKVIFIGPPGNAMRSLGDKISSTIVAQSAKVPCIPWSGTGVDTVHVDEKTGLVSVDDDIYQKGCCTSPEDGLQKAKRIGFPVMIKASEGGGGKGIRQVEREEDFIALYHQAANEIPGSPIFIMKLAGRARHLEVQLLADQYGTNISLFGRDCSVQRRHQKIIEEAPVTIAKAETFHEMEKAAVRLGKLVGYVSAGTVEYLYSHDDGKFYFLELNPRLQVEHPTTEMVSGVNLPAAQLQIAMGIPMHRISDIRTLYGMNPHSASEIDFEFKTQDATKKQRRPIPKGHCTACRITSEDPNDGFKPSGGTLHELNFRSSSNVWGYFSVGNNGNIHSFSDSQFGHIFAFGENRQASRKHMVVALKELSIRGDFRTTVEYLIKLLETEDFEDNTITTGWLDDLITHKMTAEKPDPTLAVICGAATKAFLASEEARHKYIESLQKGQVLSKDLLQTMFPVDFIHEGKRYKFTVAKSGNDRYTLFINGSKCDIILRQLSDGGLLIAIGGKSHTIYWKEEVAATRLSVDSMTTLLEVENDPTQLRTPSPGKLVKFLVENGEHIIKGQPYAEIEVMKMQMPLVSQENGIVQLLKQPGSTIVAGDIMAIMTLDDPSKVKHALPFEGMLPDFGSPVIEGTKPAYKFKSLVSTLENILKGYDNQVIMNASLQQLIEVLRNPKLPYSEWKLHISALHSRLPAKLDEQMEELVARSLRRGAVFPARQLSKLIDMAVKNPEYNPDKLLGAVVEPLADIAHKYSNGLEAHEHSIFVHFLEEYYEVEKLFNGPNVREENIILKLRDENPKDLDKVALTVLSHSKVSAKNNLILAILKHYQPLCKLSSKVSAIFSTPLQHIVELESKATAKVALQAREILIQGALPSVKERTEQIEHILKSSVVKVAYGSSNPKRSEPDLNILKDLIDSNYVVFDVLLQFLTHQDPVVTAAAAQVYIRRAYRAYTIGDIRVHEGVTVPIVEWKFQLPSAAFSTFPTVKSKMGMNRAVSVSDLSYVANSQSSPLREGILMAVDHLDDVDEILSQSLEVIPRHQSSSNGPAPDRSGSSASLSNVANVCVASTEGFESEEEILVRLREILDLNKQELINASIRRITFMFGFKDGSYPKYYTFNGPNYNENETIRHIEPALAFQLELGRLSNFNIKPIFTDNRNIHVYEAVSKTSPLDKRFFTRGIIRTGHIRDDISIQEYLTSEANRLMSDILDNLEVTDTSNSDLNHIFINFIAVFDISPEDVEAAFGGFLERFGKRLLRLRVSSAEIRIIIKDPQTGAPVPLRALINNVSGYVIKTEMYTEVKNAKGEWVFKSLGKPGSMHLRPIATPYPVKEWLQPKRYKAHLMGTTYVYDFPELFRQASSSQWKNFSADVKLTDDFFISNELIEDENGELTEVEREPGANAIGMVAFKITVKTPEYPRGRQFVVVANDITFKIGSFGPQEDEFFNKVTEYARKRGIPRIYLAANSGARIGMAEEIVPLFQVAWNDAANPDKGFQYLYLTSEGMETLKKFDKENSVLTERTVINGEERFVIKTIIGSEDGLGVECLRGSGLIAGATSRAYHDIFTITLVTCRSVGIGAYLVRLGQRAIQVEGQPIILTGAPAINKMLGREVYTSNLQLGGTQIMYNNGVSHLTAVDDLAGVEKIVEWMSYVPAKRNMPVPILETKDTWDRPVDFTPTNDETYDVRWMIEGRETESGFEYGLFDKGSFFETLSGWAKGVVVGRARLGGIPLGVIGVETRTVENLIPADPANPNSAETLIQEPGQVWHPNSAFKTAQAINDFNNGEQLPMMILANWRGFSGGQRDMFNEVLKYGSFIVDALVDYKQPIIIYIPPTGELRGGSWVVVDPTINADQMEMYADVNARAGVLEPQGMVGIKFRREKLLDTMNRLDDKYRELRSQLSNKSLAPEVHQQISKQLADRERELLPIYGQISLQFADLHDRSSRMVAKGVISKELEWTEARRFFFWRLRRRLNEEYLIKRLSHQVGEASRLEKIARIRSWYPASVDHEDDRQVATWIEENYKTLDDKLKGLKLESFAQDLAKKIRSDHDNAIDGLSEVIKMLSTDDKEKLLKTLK
Sequence of human (hACC2) ACC2 (O00763 whole entry): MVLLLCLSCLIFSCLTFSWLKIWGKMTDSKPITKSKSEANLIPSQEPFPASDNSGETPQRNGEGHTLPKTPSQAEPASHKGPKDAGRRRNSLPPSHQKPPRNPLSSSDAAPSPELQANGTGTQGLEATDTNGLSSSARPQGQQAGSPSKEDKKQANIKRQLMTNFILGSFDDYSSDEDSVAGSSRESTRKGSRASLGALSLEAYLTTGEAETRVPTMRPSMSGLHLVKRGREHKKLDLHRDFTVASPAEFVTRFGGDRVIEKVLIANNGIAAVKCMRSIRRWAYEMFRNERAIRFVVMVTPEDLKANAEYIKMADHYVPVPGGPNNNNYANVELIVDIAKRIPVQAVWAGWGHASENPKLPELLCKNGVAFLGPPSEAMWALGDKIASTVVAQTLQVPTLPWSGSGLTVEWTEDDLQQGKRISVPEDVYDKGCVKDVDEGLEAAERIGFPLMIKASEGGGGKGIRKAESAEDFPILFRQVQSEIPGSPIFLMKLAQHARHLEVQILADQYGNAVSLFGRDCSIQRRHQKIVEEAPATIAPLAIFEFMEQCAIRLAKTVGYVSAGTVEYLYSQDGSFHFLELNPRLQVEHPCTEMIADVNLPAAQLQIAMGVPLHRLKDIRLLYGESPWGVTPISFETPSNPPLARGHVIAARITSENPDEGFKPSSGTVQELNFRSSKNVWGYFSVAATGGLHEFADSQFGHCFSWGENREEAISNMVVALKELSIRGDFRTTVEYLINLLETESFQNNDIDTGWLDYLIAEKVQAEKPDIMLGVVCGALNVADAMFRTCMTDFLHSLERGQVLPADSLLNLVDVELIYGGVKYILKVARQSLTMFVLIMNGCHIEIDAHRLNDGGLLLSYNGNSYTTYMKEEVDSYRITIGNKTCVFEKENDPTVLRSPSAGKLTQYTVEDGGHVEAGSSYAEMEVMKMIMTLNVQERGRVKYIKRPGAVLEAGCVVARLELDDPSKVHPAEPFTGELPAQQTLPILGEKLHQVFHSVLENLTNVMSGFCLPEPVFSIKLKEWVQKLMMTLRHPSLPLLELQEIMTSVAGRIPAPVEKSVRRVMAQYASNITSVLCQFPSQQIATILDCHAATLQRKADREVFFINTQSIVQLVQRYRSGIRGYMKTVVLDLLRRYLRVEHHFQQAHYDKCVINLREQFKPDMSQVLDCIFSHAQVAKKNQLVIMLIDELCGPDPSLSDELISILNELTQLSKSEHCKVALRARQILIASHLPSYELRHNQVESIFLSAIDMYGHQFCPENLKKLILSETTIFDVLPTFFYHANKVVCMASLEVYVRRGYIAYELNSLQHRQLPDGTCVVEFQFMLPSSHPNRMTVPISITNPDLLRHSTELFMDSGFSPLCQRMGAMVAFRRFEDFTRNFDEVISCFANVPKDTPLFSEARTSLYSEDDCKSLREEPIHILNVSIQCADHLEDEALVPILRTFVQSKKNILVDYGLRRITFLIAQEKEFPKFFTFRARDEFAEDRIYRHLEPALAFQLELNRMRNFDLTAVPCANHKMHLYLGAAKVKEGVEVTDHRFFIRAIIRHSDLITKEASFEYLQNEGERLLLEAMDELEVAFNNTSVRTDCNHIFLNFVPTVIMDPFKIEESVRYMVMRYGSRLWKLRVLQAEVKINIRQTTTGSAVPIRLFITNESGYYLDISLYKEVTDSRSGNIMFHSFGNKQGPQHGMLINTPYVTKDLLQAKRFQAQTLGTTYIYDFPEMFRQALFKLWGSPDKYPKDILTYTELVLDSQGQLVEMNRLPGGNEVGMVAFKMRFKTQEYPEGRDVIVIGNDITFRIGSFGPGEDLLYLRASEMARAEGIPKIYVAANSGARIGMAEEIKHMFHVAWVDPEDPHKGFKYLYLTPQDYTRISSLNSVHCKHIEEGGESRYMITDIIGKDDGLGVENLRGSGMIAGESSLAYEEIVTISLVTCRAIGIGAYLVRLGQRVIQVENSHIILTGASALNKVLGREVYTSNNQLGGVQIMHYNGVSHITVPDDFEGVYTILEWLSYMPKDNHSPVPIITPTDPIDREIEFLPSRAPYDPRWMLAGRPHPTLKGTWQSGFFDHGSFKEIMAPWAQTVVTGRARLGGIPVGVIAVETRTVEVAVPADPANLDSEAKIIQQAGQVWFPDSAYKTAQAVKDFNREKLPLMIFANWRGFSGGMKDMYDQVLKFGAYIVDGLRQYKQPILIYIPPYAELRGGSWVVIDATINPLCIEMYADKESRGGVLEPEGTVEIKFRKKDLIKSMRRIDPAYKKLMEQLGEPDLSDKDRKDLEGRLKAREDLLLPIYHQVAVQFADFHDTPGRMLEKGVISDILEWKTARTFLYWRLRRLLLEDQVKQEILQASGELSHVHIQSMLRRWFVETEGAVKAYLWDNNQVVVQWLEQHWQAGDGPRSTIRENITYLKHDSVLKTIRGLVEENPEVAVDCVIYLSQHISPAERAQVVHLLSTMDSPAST

Structure (SMILES): COc1ccc(F)cc1[C@H](Cn1c(=O)n(C(C)C(=O)O)c(=O)c2c(C)c(-n3cccn3)sc21)OCCO (some centres unmarked) [Compound I-60]
- IC50 (human (hACC2) ACC2): 3 to 10 nM
- MIC [1]: > 4.1 µg/mL
- MIC (C. albicans ATCC 90028): > 4.1 µg/mL
- MIC (C. krusei ATCC 6258): > 4.1 µg/mL
- IC50 (fungal (fACC2) ACC2): 0.6 to 3 nM

Structure (SMILES): COc1ccc(F)cc1[C@H](Cn1c(=O)n(C(C)C(N)=O)c(=O)c2c(C)c(-n3cccn3)sc21)OCCO (some centres unmarked) [Compound I-61]
- IC50 (human (hACC2) ACC2): 10 to 40 nM
- MIC [1]: > 4.1 µg/mL
- MIC (C. albicans ATCC 90028): > 4.1 µg/mL
- MIC (C. krusei ATCC 6258): > 4.1 µg/mL
- IC50 (fungal (fACC2) ACC2): 0.6 to 3 nM

Structure (SMILES): COc1ccc(F)cc1[C@H](Cn1c(=O)n(C(C)C(=O)O)c(=O)c2c(C)c(-n3cccn3)sc21)OCC(C)(C)O (some centres unmarked) [Compound I-62]
- IC50 (human (hACC2) ACC2): 3 to 10 nM
- MIC [1]: > 4.1 µg/mL
- MIC (C. albicans ATCC 90028): > 4.1 µg/mL
- MIC (C. krusei ATCC 6258): > 4.1 µg/mL
- IC50 (fungal (fACC2) ACC2): 0.6 to 3 nM

Structure (SMILES): COCCOc1ccc(F)cc1[C@H](Cn1c(=O)n(C(C)(C)C(N)=O)c(=O)c2c(C)c(-n3cccn3)sc21)OC(C)C [Compound I-63]
- IC50 (human (hACC2) ACC2): 3 to 10 nM
- MIC [1]: > 4.1 µg/mL
- MIC (C. albicans ATCC 90028): > 4.1 µg/mL
- MIC (C. krusei ATCC 6258): > 4.1 µg/mL
- IC50 (fungal (fACC2) ACC2): 0.6 to 3 nM

Structure (SMILES): COCCOc1ccc(F)cc1[C@H](Cn1c(=O)n(C(C)(C)C(=O)O)c(=O)c2c(C)c(-n3cccn3)sc21)OC(C)C [Compound I-64]
- IC50 (human (hACC2) ACC2): 3 to 10 nM
- MIC [1]: > 4.1 µg/mL
- MIC (C. albicans ATCC 90028): > 4.1 µg/mL
- MIC (C. krusei ATCC 6258): > 4.1 µg/mL
- IC50 (fungal (fACC2) ACC2): 0.6 to 3 nM

Structure (SMILES): COc1ccc(F)cc1[C@H](Cn1c(=O)n(C(C)C(=O)O)c(=O)c2c(C)c(-n3cccn3)sc21)OCC(C)=O (some centres unmarked) [Compound I-65]
- IC50 (human (hACC2) ACC2): 10 to 40 nM
- MIC [1]: > 4.1 µg/mL
- MIC (C. albicans ATCC 90028): > 4.1 µg/mL
- MIC (C. krusei ATCC 6258): > 4.1 µg/mL
- IC50 (fungal (fACC2) ACC2): 3 to 10 nM

Structure (SMILES): COc1ccc(F)cc1[C@H](Cn1c(=O)n(C(C)C(=O)N2CCCC2)c(=O)c2c(C)c(-n3cccn3)sc21)OCC(C)(C)O (some centres unmarked) [Compound I-66]
- IC50 (human (hACC2) ACC2): 10 to 40 nM
- MIC [1]: > 4.1 µg/mL
- MIC (C. albicans ATCC 90028): > 4.1 µg/mL
- MIC (C. krusei ATCC 6258): > 4.1 µg/mL
- IC50 (fungal (fACC2) ACC2): 0.6 to 3 nM

Structure (SMILES): COc1ccc(F)cc1[C@H](Cn1c(=O)n(C(C)C(=O)NC(C)C)c(=O)c2c(C)c(-n3cccn3)sc21)OCC(C)(C)O (some centres unmarked) [Compound I-67]
- IC50 (human (hACC2) ACC2): 10 to 40 nM
- MIC [1]: > 4.1 µg/mL
- MIC (C. albicans ATCC 90028): > 4.1 µg/mL
- MIC (C. krusei ATCC 6258): > 4.1 µg/mL
- IC50 (fungal (fACC2) ACC2): 0.6 to 3 nM

Structure (SMILES): COc1ccc(F)cc1[C@H](Cn1c(=O)n(C(C)C(N)=O)c(=O)c2c(C)c(-n3cccn3)sc21)OCC(C)(C)O (some centres unmarked) [Compound I-68]
- IC50 (human (hACC2) ACC2): 10 to 40 nM
- MIC [1]: > 4.1 µg/mL
- MIC (C. albicans ATCC 90028): > 4.1 µg/mL
- MIC (C. krusei ATCC 6258): > 4.1 µg/mL
- IC50 (fungal (fACC2) ACC2): 0.6 to 3 nM

Structure (SMILES): COCCCO[C@@H](Cn1c(=O)n(C(C)C(=O)NC(C)C)c(=O)c2c(C)c(-n3cccn3)sc21)c1cc(F)ccc1OC (some centres unmarked) [Compound I-69]
- IC50 (human (hACC2) ACC2): 10 to 40 nM
- MIC [1]: > 4.1 µg/mL
- MIC (C. albicans ATCC 90028): > 4.1 µg/mL
- MIC (C. krusei ATCC 6258): > 4.1 µg/mL
- IC50 (fungal (fACC2) ACC2): 0.6 to 3 nM

Structure (SMILES): COCCO[C@@H](Cn1c(=O)n([C@@H](C)C(=O)N2CCCC2)c(=O)c2c(C)c(-n3cccn3)sc21)c1cc(F)ccc1OC [Compound I-75, 1-((R)-2-(5-fluoro-2-methoxyphenyl)-2-(2-methoxyethoxy)ethyl)-5-methyl-3-((S)-1-oxo-1-(pyrrolidin-1-yl)propan-2-yl)-6-(1H-pyrazol-1-yl)thieno[2,3-d]pyrimidine-2,4(1H,3H)-dione]
- IC50 (human (hACC2) ACC2): 3 to 10 nM
- IC90 [2]: 2 µg/mL (≈ 3.34 µM)
- IC90 (Diplodia maydis (Dm)): 2 µg/mL (≈ 3.34 µM)
- IC90 ([3]; Table 4b, 48 hours): 0.08 µg/mL (≈ 0.133 µM)
- IC90 (Botrtyis cinerea (Bc)): 2 µg/mL (≈ 3.34 µM)
- IC90 ([4]; 48 hours): > 50 µg/mL
- IC90 [5, 6]: 0.4 µg/mL (≈ 0.667 µM)
- IC90 (Septoria tritici (St); 48 hours): > 50 µg/mL
- IC90 (Rhizoctonia solani (Rs)): 0.08 µg/mL (≈ 0.133 µM)
- IC50 (fungal (fACC2) ACC2): 0.6 to 3 nM

Structure (SMILES): COc1ccc(F)cc1[C@H](Cn1c(=O)n(C(C)(C)C(=O)NC(C)C)c(=O)c2c(C)c(-n3cccn3)sc21)OCCC#N [Compound I-78, (R)-2-(1-(2-(2-cyanoethoxy)-2-(5-fluoro-2-methoxyphenyl)ethyl)-5-methyl-2,4-dioxo-6-(1H-pyrazol-1-yl)-1,4-dihydrothieno[2,3-d]pyrimidin-3(2H)-yl)-N-isopropyl-2-methylpropanamide]
- IC50 (human (hACC2) ACC2): 10 to 40 nM
- IC90 [2]: > 50 µg/mL
- IC90 (Diplodia maydis (Dm)): > 50 µg/mL
- IC90 [3]: 10 µg/mL (≈ 16.8 µM)
- IC90 (Botrtyis cinerea (Bc)): 10 µg/mL (≈ 16.8 µM)
- IC90 ([4]; 48 h): > 50 µg/mL
- IC90 ([5]; read-out: Concentration at 90% Inhibition Fv, Table 4b, 48 hours): > 50 µg/mL
- IC90 (Septoria tritici (St); 48 h): > 50 µg/mL
- IC90 (Rhizoctonia solani (Rs)): 10 µg/mL (≈ 16.8 µM)
- IC50 (fungal (fACC2) ACC2): 0.6 to 3 nM

Structure (SMILES): COc1ccccc1[C@H](Cn1c(=O)n(C(C)(C)C(=O)O)c(=O)c2c(C)c(-n3cccn3)sc21)OCCC#N [Compound I-79]
- IC50 (human (hACC2) ACC2): 3 to 10 nM
- IC90 [2]: 0.4 µg/mL (≈ 0.744 µM)
- IC90 (Diplodia maydis (Dm)): 0.4 µg/mL (≈ 0.744 µM)
- IC90 ([3]; Table 4b, 48 hours): 0.08 µg/mL (≈ 0.149 µM)
- IC90 (Botrtyis cinerea (Bc)): 0.4 µg/mL (≈ 0.744 µM)
- IC90 ([4]; 48 hours): > 50 µg/mL
- IC90 [5, 6]: 0.4 µg/mL (≈ 0.744 µM)
- IC90 (Septoria tritici (St); 48 hours): 10 µg/mL (≈ 18.6 µM)
- IC90 (Rhizoctonia solani (Rs)): 0.08 µg/mL (≈ 0.149 µM)
- IC50 (fungal (fACC2) ACC2): 0.6 to 3 nM

Reference: patent US10941158B2, “Pyrazole ACC inhibitors and uses thereof” (Gilead Apollo, LLC, priority 2015, dated 2021)
